Measured values taken from paper PMC8268581, “Identification of 3,4-Dihydro-2H,6H-pyrimido[1,2-c][1,3]benzothiazin-6-imine Derivatives as Novel Selective Inhibitors of Plasmodium falciparum Dihydroorotate Dehydrogenase” (International Journal of Molecular Sciences, 2021).

Assays:
[1] = Cytotoxicity assay, HDF (Cell Counting Kit-8); format: cell-based; conditions: human dermal fibroblast (HDF) cells, normal human dermal fibroblasts
Experimental: (§1) Human dermal fibroblast cells (HDF, Zenbio, Inc., Durham, NC, USA) were cultured in Dulbecco’s Modified Eagle Medium/Nutrient Mixture F-12 medium (DMEM/F12, Gibco), human pancreatic carcinoma cells (PANC-1, DS Pharma Biomedical, Co., Ltd.) were cultured in DMEM (Gibco), and human colorectal adenocarcinoma cells (DLD-1, Taiho Pharmaceutical Company) were cultured in RPMI-1640 medium (FUJIFILM Wako Pure Chemicals). The culture mediums were supplemented with 10% (v/v) heat-inactivated fetal bovine serum (Gibco) and the cells were maintained at 37 °C under 5% CO2.
(§2) HDF, PANC-1, and DLD-1 were seeded at 2.5 × 10^4 cells/well on a 96-well plate and incubated at 37 °C under 5% CO2 overnight. The cells were then washed with PBS and the medium was replaced with 99 µL of fresh media. Then, 1 µL of the compounds or DMSO was added to the respective wells. As controls, wells containing 1% (v/v) DMSO in column 1 and wells containing only the culture medium in column 12 were used as the negative and positive controls, respectively. After 48 h of incubation, the cells were washed with PBS, and 99 µL of fresh media was replaced, followed by the addition of 10 µL of Cell Counting Kit-8 (Dojindo) to each well. After 3 h of incubation, the absorbance was measured at 450 nm using a SpectraMax®® Paradigm®® Multi-Mode microplate Reader. The calculation of cell viability in the test well was based on the absorbance of control wells according to the manufacturer’s protocol. The mean of quadruplet values was used to calculate the CC50 using GraphPad Prism 8.0 software.

[2] = target: T1, HsDHODH (Homo sapiens, UniProt Q02127); test: HsDHODH counter-assay; format: biochemical; conditions: purified recombinant HsDHODH, tested at 4.5 µM; read-out: IC50 DHODH Hs
T1 construct: made in house
T1 sequence (Q02127 whole entry): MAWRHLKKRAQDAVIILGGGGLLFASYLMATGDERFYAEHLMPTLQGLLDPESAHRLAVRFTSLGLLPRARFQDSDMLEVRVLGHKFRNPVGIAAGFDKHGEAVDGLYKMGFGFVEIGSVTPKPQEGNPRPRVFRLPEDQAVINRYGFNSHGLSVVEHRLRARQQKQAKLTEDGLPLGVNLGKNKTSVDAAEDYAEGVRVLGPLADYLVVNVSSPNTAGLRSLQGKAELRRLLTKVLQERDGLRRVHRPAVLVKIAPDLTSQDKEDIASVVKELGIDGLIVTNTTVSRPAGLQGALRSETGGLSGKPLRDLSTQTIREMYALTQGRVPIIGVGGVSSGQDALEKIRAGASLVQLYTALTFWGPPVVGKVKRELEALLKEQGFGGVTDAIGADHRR
Experimental: Selected hit compounds from PfDHODH screening were tested for potential inhibition against HsDHODH at 4.5 µM. The HsDHODH used in this study was purified as previously reported. The HsDHODH assay was performed similarly to that for PfDHODH, but in an assay mix consisting of 50 mM Tris-HCl pH 8.0, 0.1% (v/v) Triton X-100, 2 mM potassium cyanide (KCN, Wako), 60 µM dUQ, and 120 µM DCIP, with the reaction started by the addition of 200 µM L-DHO (final concentration) in triplicate. For this assay, DMSO was used as a negative control and 10 µM of lapachol was used as a positive control (100% inhibition). The relative inhibition was calculated as described above.

[3] = target: mammalian mitochondrial complexes I–III (Bos taurus, UniProt P00157+P03887+P17694+P42026); test: NADH-cytochrome c reductase (complexes I–III) activity assay; format: biochemical; conditions: bovine heart mitochondria, range tested 0.0007 to 22.7 µM; read-out: IC50 Mammalian Mitochondrial CI–III
Experimental: Bovine heart mitochondria were prepared as previously described. The NADH-cytochrome c reductase (complexes I–III) and succinate-cytochrome c reductase (complexes II–III) activities were assayed in 384-well plates following an established protocol with small modifications. Complex I–III activity was assayed in a reaction mix containing 50 mM phosphate buffer pH 7.4, 2 mM KCN, 200 µM cytochrome c (cytochrome c from horse heart, Nacalai tesque), and 15 µg/mL mitochondria. Plates containing 1 µL serial dilutions of PfDHODH inhibitors were prepared and mixed with 38 µL of the reaction mix, as described above. The reaction was started by the addition of 5 µL of 2.6 mM NADH, and the assay was performed as described for PfDHODH, but at 550 nm and with 15 min of incubation. Complex II–III activity was assayed similarly to complex I–III activity but with 100 µM cytochrome c and 25 µg/mL mitochondria, and the reaction was started by 10 mM succinate. For both assays, DMSO and 5 µM ascochlorin were used as negative and positive controls, respectively. Assays were performed in triplicate.

[4] = Cytotoxicity assay, PANC-1 (Cell Counting Kit-8); format: cell-based; conditions: PANC-1 human pancreatic carcinoma cells
Experimental: as §1, §2

[5] = target: T2, PfDHODH (Plasmodium falciparum, UniProt Q08210); test: PfDHODH inhibition assay (DCIP end-point, 384-well); format: biochemical; conditions: recombinant tag-free PfDHODH, 20 min, serial dilutions 0.0007-22.7 µM; read-out: IC50 DHODH Pf
T2 construct: encoding amino acid residues 158 to 569 fused to a His6-SUMO tag in its N-terminus; His6-SUMO (N, cleaved yes); made in house; host or cells: E. coli BL21 Star (DE3), pETSUMO/PfDHODH
T2 sequence (Q08210 158-569): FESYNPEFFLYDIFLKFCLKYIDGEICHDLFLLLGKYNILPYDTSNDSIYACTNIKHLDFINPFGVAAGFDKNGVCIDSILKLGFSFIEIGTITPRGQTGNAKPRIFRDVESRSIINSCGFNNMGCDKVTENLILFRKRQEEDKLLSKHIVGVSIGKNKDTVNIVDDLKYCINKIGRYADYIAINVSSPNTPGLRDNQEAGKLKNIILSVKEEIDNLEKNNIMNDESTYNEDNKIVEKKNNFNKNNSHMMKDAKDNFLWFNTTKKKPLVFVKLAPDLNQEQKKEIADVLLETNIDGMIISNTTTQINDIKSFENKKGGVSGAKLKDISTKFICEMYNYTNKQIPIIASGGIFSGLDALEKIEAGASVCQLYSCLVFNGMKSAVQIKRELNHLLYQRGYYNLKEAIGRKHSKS
Experimental: The screening of 40,400 compounds was conducted in 384-well plates by adapting the end-point assay reported before. First, 1 µL of 200 µM compound was transferred into 384-well plates using a Benchtop Multi-Pipetter EDR-384SR (Biotech Co., Ltd., Tokyo, Japan). […] Next, 38 µL of assay mix (100 mM HEPES-NaOH pH 7.5, 5% (v/v) glycerol, 150 mM NaCl, 0.05% (v/v) Triton X-100, 15 µM decylubiquinone (dUQ, Sigma), 120 µM 2,6-dichlorophenolindophenol (DCIP, Sigma), and 20 nM PfDHODH) were dispensed into all wells and mixed at 600 rpm for 1 min by a MixMate®® (Eppendorf). The reaction was started by the addition of 5 µL of 1.8 mM L-DHO (Sigma) as the substrate and mixed as described above for 20 s. The absorbance at 600 nm was recorded using a SpectraMax®® Paradigm®® Multi-Mode Microplate Reader (Molecular Devices) before (t0) and after 20 min (t20) incubation at room temperature. The readings at t0 were subtracted from t20, and PfDHODH inhibition was calculated as the inhibition relative to the negative and positive controls in a single-point assay. Hits were defined as compounds inhibiting more than 50% of PfDHODH activity at 4.5 µM. The quality of the screening system was evaluated by calculating statistical parameters: Z′-factor, S/N, S/B, SW, and CV, as previously reported. The IC50 values of the hit compounds were determined using the same assay system containing serial dilutions of each compound in triplicates (22.7, 6.8, 2.27, 0.68, 0.227, 0.068, 0.023, 0.007, 0.002, 0.0007 µM) using GraphPad Prism 8.0 software (GraphPad Software Inc., San Diego, CA, USA).

SMILES	EC50 at 48 h [1]	IC50 [2]	IC50 [3]	EC50 at 48 h [4]	IC50 [5]
N=C1Sc2cc(-c3ccccc3)ccc2C2=NCCCN12 [Compound 12]	> 10 µM	> 4.5 µM	> 22.7 µM	> 10 µM	0.68 ± 0.05 µM
COC(=O)c1cccc(-c2ccc3c(c2)SN2CCCN=C32)c1 [Compound 40]	9.16 µM	> 4.5 µM	> 22.7 µM	> 10 µM	1.43 ± 0.02 µM
